From patent publication US11685734B2, “ATM kinase inhibitors and compositions and methods of use thereof” (CHDI Foundation, Inc., priority 2019, dated 2023)

Assays:
[1] = biological target: Recombinant, full length human FLAG-tagged ATM (Homo sapiens (Human), UniProt Q13315); test: ATM ELISA for p53 S15 phosphorylation; type: biochemical; settings: 0.75 nM ATM, 25 nM p53, 10 μM ATP, 30 min at 20° C.; read-out: ATM BIO IC50
Procedure: ATM: Recombinant, full length human FLAG-tagged ATM activity (Eurofins 14-933) was measured in an ELISA for p53 S15 phosphorylation, in a 384 well V-bottom polypropylene plate (Greiner Bio One 781280). Reactions contained 0.75 nM ATM, 25 nM full length myc tagged p53 (Eurofins 23-034), 10 μM UltraPure ATP (Promega V915B) and serial dilutions of inhibitors (0.1% DMSO final) in 25 mM HEPES, pH 7.5. 5 mM MgCl2, 2.5 mM MnCl2, 0.006% Brij-35, 0.5% glycerol, 0.1 mg/ml BSA, 0.5 mM DTT and were allowed to proceed for 30 min at 20° C. 70 mM EDTA final terminated the kinase reactions. An aliquot of the terminated reaction (25 μl) was transferred to a 384-well, high binding microplate (Greiner Bio One 781061), precoated with anti-myc capture antibody overnight (Millipore 05-724) diluted in 1:1000 in PBS, then blocked with Odyssey blocking buffer (LI-COR Biosciences 92740000) for 60 min at 20° C. The terminated reaction was allowed to capture for 2 h at 20° C. Phosphorylation was measured using an antibody specific to p53 S15 phosphorylation (1:5000 Abcam ab38497), anti-rabbit HRP (1:1000 Cell Signalling Technology, 7074) and TMB (ab171522). Antibodies were diluted in Odyssey blocking buffer and incubated for 60 min at 20° C. Three washes with PBS containing 0.05% (v/v) Tween 20 (PBS-T) were performed between each incubation. The TMB reaction was stopped with an equal volume of 0.2 M sulfuric acid and absorbance read at 450 nm on the Perkin Elmer Envision within 30 min of terminating the reaction. […] IC50 values represent the mean from at least two independent experiments.

[2] = biological target: cellular ATM activity (Homo sapiens (Human), UniProt Q13315); test: Inhibition of cellular ATM activity: etoposide-stimulated KAP1 phosphorylation in U20S cells; type: cell-based; settings: 100 μM etoposide, 60 min, read-out: ATM CELL IC50
Procedure: Inhibition of cellular ATM activity was determined by changes in etoposide-stimulated KAP1 phosphorylation, based on the work of Guo et al. 2014.
Cryopreserved U20S cells were plated overnight at 6 k cells/well in black walled, clear bottomed 384 well plates (Greiner Bio One 781090). After overnight incubation (37 C, 5% CO2), cells were incubated with titrations of test compounds (0.3% DMSO final) in the presence of 100 μM etoposide (Sigma E1383) to stimulate ATM via induction of double stranded DNA breaks. After 60 min, cells were fixed using 100% cold methanol and incubated at −20° C. for 10 min. Fixed cells were washed with PBS containing 0.05% (v/v) Tween 20 (PBS-T) prior to a 60 minute blocking step in Odyssey blocking buffer (LI-COR Biosciences 92740000). Primary antibodies (1:1000 phosphorylated KAP1: Cell Signalling Technology 4127, 1:5000 total KAP1: Cell Signaling Technology 5868) were diluted in Odyssey blocking buffer and incubated overnight at 4° C., before addition of IRDye(R) conjugated secondary antibodies (LI-COR Biociences 926-32211, LI-COR Biosciences 926-68070) diluted 1:2000 in Odyssey blocking buffer for 60 min at room temperature and detection by LI-COR Odyssey (ImageStudio version 2.1.10, focus offset 4 mm, resolution 169 μm, lowest quality, intensities of 1 and 3 for 700 and 800 channels respectively). Immunoreactivity was quantified and the ratio of phosphorylated KAP1 calculated by dividing by the total KAP1 immunoreactivity. The percentage of inhibition was calculated for each concentration of compound using 100% (100 μM etoposide+30 μM KU-60019) and 0% effect controls (100 μM etoposide+DMSO). IC50 values represent the mean from at least two independent experiments.

Sequence of cellular ATM activity (Q13315 whole entry): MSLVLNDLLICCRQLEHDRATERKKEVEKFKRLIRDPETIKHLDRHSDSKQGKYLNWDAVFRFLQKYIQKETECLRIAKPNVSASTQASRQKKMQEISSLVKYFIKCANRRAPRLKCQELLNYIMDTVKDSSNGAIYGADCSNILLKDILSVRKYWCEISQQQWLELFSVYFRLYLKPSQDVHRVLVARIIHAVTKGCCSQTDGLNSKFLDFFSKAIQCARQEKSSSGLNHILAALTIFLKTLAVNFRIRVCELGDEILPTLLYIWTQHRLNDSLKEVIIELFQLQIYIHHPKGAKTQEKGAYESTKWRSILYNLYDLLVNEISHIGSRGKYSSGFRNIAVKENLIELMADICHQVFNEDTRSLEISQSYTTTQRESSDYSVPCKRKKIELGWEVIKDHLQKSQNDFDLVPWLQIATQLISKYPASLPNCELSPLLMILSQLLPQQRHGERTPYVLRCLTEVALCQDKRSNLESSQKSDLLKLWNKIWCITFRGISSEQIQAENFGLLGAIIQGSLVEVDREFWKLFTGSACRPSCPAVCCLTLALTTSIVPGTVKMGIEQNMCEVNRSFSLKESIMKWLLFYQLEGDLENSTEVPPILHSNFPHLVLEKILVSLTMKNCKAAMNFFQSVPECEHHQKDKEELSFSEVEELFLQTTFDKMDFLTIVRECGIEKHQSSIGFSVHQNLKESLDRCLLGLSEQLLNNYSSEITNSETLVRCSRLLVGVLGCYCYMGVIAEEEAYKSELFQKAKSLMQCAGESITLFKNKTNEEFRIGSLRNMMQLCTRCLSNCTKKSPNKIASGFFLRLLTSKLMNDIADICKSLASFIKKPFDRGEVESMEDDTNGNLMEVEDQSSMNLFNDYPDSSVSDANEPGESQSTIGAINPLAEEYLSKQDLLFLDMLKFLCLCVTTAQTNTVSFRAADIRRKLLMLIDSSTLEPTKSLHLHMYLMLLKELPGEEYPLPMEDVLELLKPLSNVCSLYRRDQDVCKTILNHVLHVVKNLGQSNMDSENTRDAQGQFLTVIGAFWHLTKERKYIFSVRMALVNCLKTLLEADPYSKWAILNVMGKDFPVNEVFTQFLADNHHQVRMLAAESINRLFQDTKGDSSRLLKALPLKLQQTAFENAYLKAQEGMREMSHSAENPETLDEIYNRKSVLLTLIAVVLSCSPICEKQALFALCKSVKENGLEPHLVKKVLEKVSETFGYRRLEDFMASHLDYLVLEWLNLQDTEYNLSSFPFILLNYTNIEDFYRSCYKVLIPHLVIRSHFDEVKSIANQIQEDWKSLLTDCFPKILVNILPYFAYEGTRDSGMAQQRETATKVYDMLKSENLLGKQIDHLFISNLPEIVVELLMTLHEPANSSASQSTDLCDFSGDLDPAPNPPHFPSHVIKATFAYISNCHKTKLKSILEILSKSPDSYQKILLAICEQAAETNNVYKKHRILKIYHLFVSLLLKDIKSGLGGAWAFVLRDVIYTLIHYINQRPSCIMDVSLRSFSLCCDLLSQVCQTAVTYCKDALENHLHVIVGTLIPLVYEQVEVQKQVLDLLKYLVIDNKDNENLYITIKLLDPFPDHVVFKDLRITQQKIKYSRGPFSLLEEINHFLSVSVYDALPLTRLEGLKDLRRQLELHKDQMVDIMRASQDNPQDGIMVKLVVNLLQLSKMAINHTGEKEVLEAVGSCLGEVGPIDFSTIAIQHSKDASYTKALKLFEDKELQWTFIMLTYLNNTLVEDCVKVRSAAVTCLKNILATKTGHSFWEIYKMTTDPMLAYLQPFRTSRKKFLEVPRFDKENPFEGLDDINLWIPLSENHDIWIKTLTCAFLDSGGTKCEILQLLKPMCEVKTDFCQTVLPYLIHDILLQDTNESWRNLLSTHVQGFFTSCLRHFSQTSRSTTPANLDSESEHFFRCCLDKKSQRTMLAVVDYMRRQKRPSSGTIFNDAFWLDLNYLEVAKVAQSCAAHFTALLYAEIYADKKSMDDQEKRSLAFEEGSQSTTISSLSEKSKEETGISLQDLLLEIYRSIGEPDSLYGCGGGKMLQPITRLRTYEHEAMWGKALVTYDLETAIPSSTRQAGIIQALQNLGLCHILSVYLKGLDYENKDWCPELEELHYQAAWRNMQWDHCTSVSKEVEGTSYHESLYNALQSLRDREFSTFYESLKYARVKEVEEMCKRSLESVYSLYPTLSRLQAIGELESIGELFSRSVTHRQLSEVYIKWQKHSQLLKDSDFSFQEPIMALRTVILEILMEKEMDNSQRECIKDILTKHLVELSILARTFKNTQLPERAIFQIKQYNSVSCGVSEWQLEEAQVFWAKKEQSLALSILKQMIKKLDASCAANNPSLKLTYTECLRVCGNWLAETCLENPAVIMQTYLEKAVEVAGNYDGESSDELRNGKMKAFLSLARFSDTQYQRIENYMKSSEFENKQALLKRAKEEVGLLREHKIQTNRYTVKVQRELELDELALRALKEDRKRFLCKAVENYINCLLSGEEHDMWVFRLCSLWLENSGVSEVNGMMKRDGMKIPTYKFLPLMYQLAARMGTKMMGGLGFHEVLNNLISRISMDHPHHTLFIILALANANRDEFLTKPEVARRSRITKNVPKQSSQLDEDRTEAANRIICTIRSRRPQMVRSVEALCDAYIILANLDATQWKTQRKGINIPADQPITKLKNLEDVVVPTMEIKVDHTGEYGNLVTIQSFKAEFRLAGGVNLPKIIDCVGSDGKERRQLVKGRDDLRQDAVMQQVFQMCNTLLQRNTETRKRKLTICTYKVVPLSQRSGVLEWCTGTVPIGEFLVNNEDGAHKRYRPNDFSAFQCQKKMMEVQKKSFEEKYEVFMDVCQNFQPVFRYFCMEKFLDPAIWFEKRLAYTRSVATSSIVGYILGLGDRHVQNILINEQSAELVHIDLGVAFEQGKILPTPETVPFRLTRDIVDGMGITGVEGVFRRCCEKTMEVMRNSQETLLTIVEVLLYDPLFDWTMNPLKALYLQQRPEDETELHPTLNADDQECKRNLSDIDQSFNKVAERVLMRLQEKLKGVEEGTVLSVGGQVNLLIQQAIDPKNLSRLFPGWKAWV
Sequence of Recombinant, full length human FLAG-tagged ATM (Q13315 whole entry): as above

Row | IC50 [1] [µM] | IC50 [2] [µM] | SMILES
1 | 0.0017 | 0.196 | O=c1cc(N2CCOCC2)nc(N2CC[C@@H](F)[C@@H]2Cc2ccccc2)[nH]1 [Example 259, 2-((2S,3R)-2-benzyl-3-fluoropyrrolidin-1-yl)-6-morpholinopyrimidin-4(3H)-one]
2 | 0.0098 | 0.282 | O=c1cc(N2CCOCC2)nc(N2CC3(CC3)C[C@@H]2Cc2ccccc2)[nH]1 [Example 262, (S)-2-(6-benzyl-5-azaspiro[2.4]heptan-5-yl)-6-morpholinopyrimidin-4(3H)-one]
3 | 0.0054 | 1.68 | COc1ccccc1C[C@H]1[C@@H](F)CCN1c1nc(N2CCO[C@H](C)C2)cc(=O)[nH]1 [Example 324]
4 | 0.0237 | 0.528 | C[C@@H]1CN(c2cc(=O)[nH]c(N3CCC[C@@H]3Cc3ccccc3)n2)C[C@@H](C)O1 [Example 347, 2-((R)-2-benzylpyrrolidin-1-yl)-6-((2R,6R)-2,6-dimethylmorpholino)pyrimidin-4(3H)-one]
5 | 0.0327 | 0.41 | Cc1ccc(C[C@H]2CCCN2c2nc(N3CCO[C@H](C)C3)cc(=O)[nH]2)cc1 [Example 274, 4-[(2R)-2-methylmorpholin-4-yl]-2-[(2R)-2-(p-tolylmethyl)pyrrolidin-1-yl]-1H-pyrimidin-6-one]
6 | 0.0461 | 0.857 | C[C@@H]1CN(c2cc(=O)[nH]c(N3CCCCC[C@@H]3Cc3ccccc3F)n2)CCO1 [Example 317, 2-((R)-2-(2-fluorobenzyl)azepan-1-yl)-6-((R)-2-methylmorpholino)pyrimidin-4(3H)-one]
7 | 0.0143 | 0.56 | COCCOc1cccc(C[C@H]2CCCCCN2c2nc(N3CCO[C@H](C)C3)cc(=O)[nH]2)c1 [Example 308, 2-((R)-2-(3-(2-methoxyethoxy)benzyl)azepan-1-yl)-6-((R)-2-methylmorpholino)pyrimidin-4(3H)-one]
8 | 0.0476 | 0.864 | C[C@@H]1CCCN(c2cc(N3CCOCC3)cc(=O)[nH]2)[C@@H](Cc2ccccc2)C1 [Example 84, 6-((2R,4R)-2-benzyl-4-methylazepan-1-yl)-4-morpholinopyridin-2(1H)-one]
9 | 0.0097 | 0.598 | O=c1cc(N2CCOCC2)nc(N2CCC[C@@H]2Cc2ccc(F)cc2)[nH]1 [Example 193]
10 | 0.0446 | 1.02 | COc1ccccc1C[C@H]1CCCN1c1cc(N2CCOCC2)cc(=O)[nH]1 [Example 7, (R)-6-(2-(2-methoxybenzyl)pyrrolidin-1-yl)-4-morpholinopyridin-2(1H)-one]
11 | 0.0365 | 2.02 | COc1ccccc1CC1CC(F)(F)CCCN1c1nc(N2CCOCC2)cc(=O)[nH]1 (stereo not drawn) [Example 239]
12 | 0.0068 | 0.881 | O=c1cc(N2CCOCC2)nc(N2CC[C@@H](O)[C@@H]2Cc2ccccc2)[nH]1 [Example 258, 2-((2S,3R)-2-benzyl-3-hydroxypyrrolidin-1-yl)-6-morpholinopyrimidin-4(3H)-one]
13 | 0.0695 | 0.756 | COc1cc(F)ccc1C[C@H]1CCCCCN1c1nc(N2CCOCC2)cc(=O)[nH]1 [Example 228]
14 | 0.0149 | 0.711 | COc1ccccc1C[C@H]1CCCCN1c1nc(N2CCOCC2)cc(=O)[nH]1 [Example 197]
15 | 0.0225 | 1.07 | CC1CCC[C@H](Cc2ccccc2)N(c2nc(N3CCOCC3)cc(=O)[nH]2)C1 (single isomer, unassigned) [Example 246]
16 | 0.0069 | 0.388 | COc1ccccc1C[C@H]1[C@@H]2C[C@@H]2CN1c1cc(N2CCOCC2)cc(=O)[nH]1 [Example 126]

Further lines, the compound ahead of its results:

Row | SMILES | IC50 [1] [µM] | IC50 [2] [µM]
17 | O=c1cc(N2CCOCC2)nc(N2CCCC[C@@H]2Cc2ccccc2)[nH]1 [Example 199] | 0.0028 | 0.125
18 | O=c1cc(N2CCOCC2)cc(N2CCCCC[C@@H]2Cc2cccc3c2OCC3)[nH]1 [Example 57, (R)-6-(2-((2,3-dihydrobenzofuran-7-yl)methyl)azepan-1-yl)-4-morpholinopyridin-2(1H)-one] | 0.018 | 0.292
19 | C[C@@H]1CN(c2cc(=O)[nH]c(N3C[C@H]4C[C@H]4[C@@H]3Cc3ccccc3)n2)CCO1 [Example 291, 2-((1R,2S,5S)-2-benzyl-3-azabicyclo[3.1.0]hexan-3-yl)-6-((R)-2-methylmorpholino)pyrimidin-4(3H)-one] | 0.0111 | 0.562
20 | C[C@H]1CCCN(c2nc(N3CCOCC3)cc(=O)[nH]2)[C@@H](Cc2ccccc2)C1 [Example 233] | 0.0012 | 0.327
21 | O=c1cc(N2CCOCC2)cc(N2CCC(F)(F)[C@@H]2Cc2ccccc2)[nH]1 [Example 98, (S)-6-(2-benzyl-3,3-difluoropyrrolidin-1-yl)-4-morpholinopyridin-2(1H)-one] | 0.0384 | 0.925
22 | Cc1ccc(C[C@H]2CCCN2c2cc(N3CCOCC3)cc(=O)[nH]2)cc1 [Example 20, (R)-6-(2-(4-methylbenzyl)pyrrolidin-1-yl)-4-morpholinopyridin-2(1H)-one] | 0.0541 | 2.93
23 | CC1(C)CCCN(c2nc(N3CCOCC3)cc(=O)[nH]2)[C@@H](Cc2ccccc2)C1 [Example 242] | 0.0845 | 9.76
24 | O=c1cc(C2=CCOCC2)cc(N2CCCCC[C@@H]2Cc2ccccc2)[nH]1 [Example 167, (R)-6-(2-benzylazepan-1-yl)-4-(3,6-dihydro-2H-pyran-4-yl)pyridin-2(1H)-one] | 0.0387 | 1.54
25 | O=c1cc(N2CCOCC2)nc(N2CCC[C@@H]2Cc2ccc(Cl)c(Cl)c2)[nH]1 [Example 190] | 0.0042 | 0.939
26 | C[C@H]1CCCN(c2nc(N3CCO[C@H](C)C3)cc(=O)[nH]2)[C@@H](Cc2ccccc2)C1 [Example 312, 2-((2R,4S)-2-benzyl-4-methylazepan-1-yl)-6-((R)-2-methylmorpholino)pyrimidin-4(3H)-one] | 0.0447 | 1.74
27 | C[C@@H]1CN(c2cc(=O)[nH]c(N3CCCCC[C@@H]3Cc3ccccc3)n2)C[C@@H](C)O1 [Example 349, 2-((R)-2-benzylazepan-1-yl)-6-((2R,6R)-2,6-dimethylmorpholino)pyrimidin-4(3H)-one] | 0.0075 | 0.345
28 | COC[C@@H](C)Oc1cccc(C[C@H]2CCCN2c2cc(N3CCOCC3)cc(=O)[nH]2)c1 [Example 148, 6-((R)-2-(3-(((R)-1-methoxypropan-2-yl)oxy)benzyl)pyrrolidin-1-yl)-4-morpholinopyridin-2(1H)-one] | 0.0418 | 1.17
29 | C[C@@H](c1ccccc1)[C@@H]1CCCN1c1nc(N2CCOCC2)cc(=O)[nH]1 [Example 250, 6-morpholino-2-((S)-2-((S)-1-phenylethyl)pyrrolidin-1-yl)pyrimidin-4(3H)-one] | 0.005 | 0.153
30 | COc1ccccc1C[C@H]1CC(F)(F)CCCN1c1cc(N2CCOCC2)cc(=O)[nH]1 [Example 62, (S)-6-(4,4-difluoro-2-(2-methoxybenzyl)azepan-1-yl)-4-morpholinopyridin-2(1H)-one] | 0.0405 | 1.25
31 | COc1ccccc1C[C@H]1C[C@@H](C)CCCN1c1nc(N2CCOCC2)cc(=O)[nH]1 [Example 237] | 0.0356 | 0.592
32 | O=c1cc(N2CCOCC2)nc(N2CCCC(F)(F)C[C@@H]2Cc2ccccc2)[nH]1 [Example 244] | 0.0102 | 0.273
33 | O=c1cc(N2CCOCC2)cc(N2C[C@@H]3CC[C@@H](C3)[C@@H]2Cc2ccccc2)[nH]1 [Example 134] | 0.0139 | 0.581
